pIC50: −log10 of the molar value.
Columns and labels:
HepG2 cells = assay: Growth inhibition of HepG2 cells, six days of substance incubation, sulforhodamin-B protein determination; assay type: cell-based; details: Homo sapiens, 144 h
Protocol: (§1) HepG2 cells plated at a density of 20,000 cells/ml in 12-well plastic dishes. Cultivation occured in Richters IMEM-ZO nutrient medium with 5% fetal calf serum (FCS) in a tissue culture incubator with a gas mixture of 5% CO2 and 95% air at a temperature of 37° C. One day after planting, the culture medium was aspirated from the cells and replaced by fresh medium which contained the respective concentrations of the test substances. For the individual concentrations and the controls without test substances, three-fold batches were done for each. Three days after the beginning of treatment, the medium was again renewed with the test compounds. After six days of substance incubation, the test was ended and the protein amount in the individual wells was determined with the sulforhodamin-B-method (according to P. Skehan et al: New Colorimetric Cytotoxicity Assay for Anticancer-Drug Screening. J. Natl. Cancer Inst. 82:1107-1112, 1990). The IC50-values (defined as that concentration in which the cell growth was inhibited by 50%) was taken from the dose-response curves and given as a comparative measurement for the activity of the test compounds.

[1] = test system: various human tumor cells; assay: In vitro activity of compound Nr. 54 on various human tumor cells; assay type: cell-based
Protocol: as §1
The compounds of formula (I) and their salts permit a therapeutic use in malignant illnesses of humans and animals through their excellent inhibition of the growth of tumor cells. The anti-neoplastic activity of the described substances can be used for prophylactic, adjunct, palliative, and curative treatment of solid tumors, leukemic illnesses and lymphomas as well as for decreasing or preventing metastasis formation in humans and animals. The therapeutic use is possible in the following illnesses for example: gynecological tumors, such as of the uterus or the vagina, ovarian carcinomas, testicle tumors, prostate carcinomas, skin cancer, kidney cancer, bladder tumors, esophagus carcinomas, stomach cancer, rectal carcinomas, pancreas carcinomas, thyroid cancer, adrenal tumors, leukemia and lymphomas, such as Hodgkin's disease, tumor illnesses of the CNS, soft-tissue sarcomas, bone sarcomas, benign and malignant mesotheliomas, but especially intestine cancer, liver cancer, breast cancer, bronchial and lung carcinomas, melanomas, acute and chronic leukemias. Thereby, benign papillomatosis tumors are also considered for therapy. The broad activity of the new compounds was tested in vitro on various human tumor cells Thereby, the following IC50 values were obtained for compound Nr.

[2] = test system: freshly isolated lymphocytes; assay: Immunosuppressing activity: vitality of freshly isolated spleen lymphocytes after 2 days, flow-through cytometry (propidium iodide / 3,3'-dihexyloxacarbocyanin iodide); assay type: cell-based; details: Lymphocyte, 48 h; Swiss mouse spleen lymphocytes, vital cells after 2 days, flow-through cytometer
Description: Many anti-tumor agents have not only a cytotoxic effect on tumor cells, but also on the blood cell system. This leads to a weakening of the immune defence, which can, in turn, be specifically employed to suppress the rejection reaction after an organ transplantation for example. Therefore, a use of the main compounds, optionally in combination with other compounds effective for these indications is suitable in diseases such as psoriasis or autoimmune diseases. In order to test the possibility for a therapeutic use in illnesses of this type, the substance activity was tested on freshly isolated lymphocytes as follows: […]
The cells were plated at a density of ca. 500,000 cells/well/ml in a 12-well plate, 1 ml doubly concentrated test substance solution was pipetted per well and this was subsequently incubated in a tissue culture incubator at 37° C. and 5% CO2. […] Subsequently, 10,000 cells per each sample were measured on a flow-through cytometer and the percentage amount of vital cells in the population was determined. By means of the dose-response curves, IC50-values were calculated which were also employed in the following Tables for the characterization of the individual substances: […]

Compound	pIC50 (HepG2 cells)	melting point	also measured
O=C(CCc1cccnc1)NCCCCC1CCN(C(c2ccccc2)c2ccccc2)CC1 [Substance 54, N-[4-(1-diphenylmethyl-piperidin-4-yl)-butyl]-3-(pyridin-3-yl)-propionamide]	7.70	–	pIC50 ([1]; MCF7, cell line MCF-7, ER-positive mammacarcinoma): 7.10; pIC50 ([1]; cell line HT-29, colon carcenoma): 7.10; pIC50 ([1]; cell line HepG2, hepatocellular carcinoma): 7.70; pIC50 ([1]; cell line Namalwa, Burkitt's lymphoma): 7.30; pIC50 ([1]; cell line Saos-2, osteosarcoma): 7.70; pIC50 ([1]; cell line THP-1, monocytic leukemia): 7.52; pIC50 [2]: 8.52
O=C(CCc1cccnc1)NCCCCCC1CCN(C(c2ccccc2)c2ccccc2)CC1 [Substance 101, N-[5-(1-diphenylmethyl-piperidin-4-yl)-pentyl]-3-(pyridin-3-yl)-propionamide]	7.52	112 to 114 °C	–
O=C(CCc1cccnc1)NCCCCNC(=O)C1CCCN(C(c2ccccc2)c2ccccc2)C1 (stereo not drawn) [Substance 106, N-[4-(1-diphenylmethyl-piperidin-3-yl-carbonylamino)-butyl]-3-(pyridin-3-yl)-propionamide]	–	159 to 161 °C	–

The next lines start with results.

pIC50 (HepG2 cells)	melting point	Compound	also measured
–	72 to 74 °C	CCN(CCCCC1CCN(C(c2ccccc2)c2ccccc2)CC1)C(=O)CCc1cccnc1 [Substance 68, N-[4-(1-diphenylmethyl-piperidin-4-yl)-butyl]-N-ethyl-3-(pyridin-3-yl)-propionamide]	–
7.10	103 to 105 °C	O=C(COc1cccnc1)NCCCCC1CCN(C(c2ccccc2)c2ccccc2)CC1 [Substance 84, N-[4-(1-diphenylmethyl-piperidin-4-yl)-butyl]-2-(pyridin-3-yloxy)-acetamide]	–
–	72 to 74 °C	O=C(CCc1cccnc1)NCCCCC1CCN(C(=O)c2ccccc2)CC1 [Substance 162, N-[4-(1-benzoylpiperidin-4-yl)-butyl]-3-(pyridin-3-yl)-propionamide]	–
